From US20090304756A1, “Method for the Encapsulation and Controlled Release of Poorly Water-Soluble (Hyprophobic) Liquid and Solid Active Ingredients” (priority 2005, published 2009)

Legend:
[1] = Amount of imidacloprid in particles, release into excess methanol with UV/vis analysis of supernatant; format: physicochemical; details: silica templates 5 μm, pore 6 nm, PSS/PAH coated; released in large excess of methanol
Procedure: 25 mg of the somewhat water-soluble active ingredient imidacloprid were dissolved in 3 ml of acetone, and 100 mg of spherical, porous silica templates (diameter 5 μm, pore size 6 nm) were added. After incubation for 30 min, water was added stepwise until the solution reached saturation of imidacloprid, evident from further considerable cloudiness. The supernatant was centrifuged off and the particles were suspended with 1% SDS solution. In this connection, here and in all of the following washing and coating solutions, imidacloprid saturated solutions were used in order to prevent a dissolving out from the particles. After the coating with PSS and PAH (analogously to Example 1), separate particles filled with 15% m/m (mass of imidacloprid/mass of particles) were obtained (FIG. 3). The amount of imidacloprid was determined by releasing the active ingredient in a large excess in methanol with subsequent UV/vis spectroscopic analysis of the supernatant.

[2] = Perylene concentration in particle interior by confocal fluorescence microscopy; format: physicochemical; details: C18 silica templates 5 μm, pore 6 nm, PAH/PSS LbL coated; self-quenching may feign lower concentration
Procedure: 12.5 mg of the model dye perylene were dissolved in 6 ml of chloroform. A suspension of 100 mg of spherical, porous silica templates (diameter 5 μm, pore size 6 nm) in 1 ml of chloroform was added thereto. The surface of the templates is hydrophobically modified with C18 alkyl chains (RP 18, chromatography material). The solvent was evaporated at 40° C. in a drying cabinet with stirring. The powder which remained was resuspended in water with the help of 1% sodium dodecyl sulphate (SDS). […] Besides the fluorescence of the perylene in the particles, a few larger (and lighter) crystals of the pure dye can also be seen which no longer arise when using smaller fill amounts. The SDS solution was centrifuged off and the particles were incubated with 500 μl of a solution of 1 g/l Cy5 labelled poly(allylamine hydrochloride) (PAH-Cy5, MW 70000 g/mol), pH 6.5 and 0.5 M NaCl for 20 min with brief application of ultrasound. After washing the particles three times with water, 500 μl of a solution of 1 g/l of poly(sodium 4-styrenesulphonate) (PSS, MW 70000 g/mol) in 0.5 M NaCl with pH 6.1 are added. […]
The concentration of the perylene in the interior of the particles was determined via the fluorescence by confocal microscopy by reference to comparison solutions. […]

| Structure (SMILES) | filling (mass of imidacloprid/mass of particles) [1] [% m/m] | concentration of perylene in the interior of the particles [2] |
| --- | --- | --- |
| O=[N+]([O-])NC1=NCCN1Cc1ccc(Cl)nc1 [imidacloprid] | 15 | – |
| c1cc2cccc3c4cccc5cccc(c(c1)c23)c54 [perylene] | – | 8.5 mg of perylene per 100 mg of particles |
